These compounds were tested against T1, human Werner helicase (WRN-BV08, Uniprot Q14191, amino acids 517-1235 with L1074F point mutation) (Homo sapiens, UniProt Q14191, L1074F) (assay: WRN (BV08) ADP-Glo Assay). Details: 0.15 nM WRN, 5 μM ATP, 0.1 nM DNA duplex, 15 min preincubation, 60 min at 25° C., pH 7.5, 1% DMSO; read-out: ADP-Glo_hWRN_IC50.
T1 construct: Uniprot Q14191, amino acids 517-1235 with L1074F point mutation; TEV-cleavable 8×His (C, cleaved yes); made in house; host or cells: Sf9 insect cells (baculovirus)
T1 sequence (Q14191 with tags, fused parts or gaps L1074F limits assumed): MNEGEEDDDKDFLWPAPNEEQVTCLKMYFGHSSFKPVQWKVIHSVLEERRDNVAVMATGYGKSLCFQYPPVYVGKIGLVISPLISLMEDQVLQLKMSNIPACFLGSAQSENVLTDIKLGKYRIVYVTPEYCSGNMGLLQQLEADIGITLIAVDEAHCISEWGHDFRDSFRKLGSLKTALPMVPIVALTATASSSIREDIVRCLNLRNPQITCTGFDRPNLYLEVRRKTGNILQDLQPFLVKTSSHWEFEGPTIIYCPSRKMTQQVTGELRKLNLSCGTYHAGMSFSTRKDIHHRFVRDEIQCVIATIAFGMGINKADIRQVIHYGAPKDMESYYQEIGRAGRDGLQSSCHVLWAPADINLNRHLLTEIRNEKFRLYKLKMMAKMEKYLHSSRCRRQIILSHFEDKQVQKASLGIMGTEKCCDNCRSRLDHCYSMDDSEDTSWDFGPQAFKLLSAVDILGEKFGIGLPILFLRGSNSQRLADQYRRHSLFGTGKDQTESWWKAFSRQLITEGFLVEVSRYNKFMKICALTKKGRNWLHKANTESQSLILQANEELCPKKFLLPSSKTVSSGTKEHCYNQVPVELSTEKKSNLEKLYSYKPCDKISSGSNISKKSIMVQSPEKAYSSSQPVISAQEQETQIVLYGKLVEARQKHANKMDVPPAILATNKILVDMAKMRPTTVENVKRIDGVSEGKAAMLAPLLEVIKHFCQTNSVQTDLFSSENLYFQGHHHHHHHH
Format: biochemical
How it was run: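 Percent inhibition was normalised to DMSO (max) and 20 μM NSC-617145 (min) controls from ADP-Glo luminescence, and IC50 values came from a four-parameter fit. The reaction ran 60 min at 25 °C with 0.15 nM WRN, 5 μM ATP and 0.1 nM duplex DNA.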

IC50 [µM] | SMILES
0.5 to 5 | CC(C)(O)c1cc(CN(C(=O)Cc2ccc(-c3ccc(Cl)cc3)cc2F)C2C=CS(=O)(=O)C2)ccn1 (centres unmarked) [I-180, 2-{4′-chloro-3-fluoro-[1,1′-biphenyl]-4-yl}-N-(1,1-dioxo-2,3-dihydro-1lambda6-thiophen-3-yl)-N-{[2-(2-hydroxypropan-2-yl)pyridin-4-yl]methyl}acetamide]
0.5 to 5 | Cc1csc(CN(C(=O)Cc2ccc(-n3cccc3)cc2)C2C=CS(=O)(=O)C2)n1 (centres unmarked) [I-189, N-(1,1-dioxo-2,3-dihydro-1lambda6-thiophen-3-yl)-N-[(4-methyl-1,3-thiazol-2-yl)methyl]-2-[4-(1H-pyrrol-1-yl)phenyl]acetamide]
< 0.5 | CC(C)(O)c1cc(CN(C(=O)Cn2ncc(-c3ccc(F)c(F)c3)cc2=O)C2C=CS(=O)(=O)C2)ccn1 (single isomer, unassigned) [I-767]
< 0.5 | CC(C)(O)c1cc(CN(C(=O)Cn2cc(-c3ccc(F)cc3)cn2)[C@@H]2C=CS(=O)(=O)C2)ccn1 [I-15, N-[(3R)-1,1-dioxo-2,3-dihydro-1lambda6-thiophen-3-yl]-2-[4-(4-fluorophenyl)-1H-pyrazol-1-yl]-N-{[2-(2-hydroxypropan-2-yl)pyridin-4-yl]methyl}acetamide]
10 to 50 | COc1cc(CN(C(=O)Cn2cc(-c3ccccc3)c(C)n2)[C@@H]2C=CS(=O)(=O)C2)ccn1 [I-596, N-[(3R)-1,1-dioxo-2,3-dihydro-1lambda6-thiophen-3-yl]-N-[(2-methoxypyridin-4-yl)methyl]-2-(3-methyl-4-phenyl-1H-pyrazol-1-yl)acetamide]
0.5 to 5 | COc1cc(CN(C(=O)Cn2cc3cc(C(F)(F)F)ccc3n2)[C@@H]2C=CS(=O)(=O)C2)ccn1 [I-699, N-[(3R)-1,1-dioxo-2,3-dihydro-1lambda6-thiophen-3-yl]-N-[(2-methoxypyridin-4-yl)methyl]-2-[5-(trifluoromethyl)-2H-indazol-2-yl]acetamide]
> 50 | O=C(Cn1ncc2ccc(C(F)F)cc21)N(Cc1ccncc1)C1C=CS(=O)(=O)C1 (centres unmarked) [I-593, 2-[6-(difluoromethyl)-1H-indazol-1-yl]-N-(1,1-dioxo-2,3-dihydro-1lambda6-thiophen-3-yl)-N-[(pyridin-4-yl)methyl]acetamide]
> 50 | O=C(/C=C/c1ccc(C(F)(F)F)cc1)N(Cc1ccncc1)C1C=CS(=O)(=O)C1 (centres unmarked) [I-529, (2E)-N-(1,1-dioxo-2,3-dihydro-1lambda6-thiophen-3-yl)-N-[(pyridin-4-yl)methyl]-3-[4-(trifluoromethyl)phenyl]prop-2-enamide]

Further lines, the compound ahead of its results:

SMILES | IC50 [µM]
COc1cc(CN(C(=O)Cn2cc(-c3ccccc3)cn2)C2C=CS(=O)(=O)C2)ccn1 (centres unmarked) [I-94, N-(1,1-dioxo-2,3-dihydro-1lambda6-thiophen-3-yl)-N-[(2-methoxypyridin-4-yl)methyl]-2-(4-phenyl-1H-pyrazol-1-yl)acetamide] | 0.5 to 5
COc1cc(CN(C(=O)C2Cc3cc(-c4ccc(F)cc4)ccc32)C2C=CS(=O)(=O)C2)ccn1 (centres unmarked) [I-176, N-(1,1-dioxo-2,3-dihydro-1lambda6-thiophen-3-yl)-3-(4-fluorophenyl)-N-[(2-methoxypyridin-4-yl)methyl]bicyclo[4.2.0]octa-1,3,5-triene-7-carboxamide] | 0.5 to 5
CC(C)(O)c1cc(CN(C(=O)C(c2ccc(-c3ccc(F)c(F)c3)cc2F)n2cccn2)C2C=CS(=O)(=O)C2)ccn1 (single isomer, unassigned) [I-669, (2R*)-N-[(3R**)-1,1-dioxo-2,3-dihydro-1lambda6-thiophen-3-yl]-N-{[2-(2-hydroxypropan-2-yl)pyridin-4-yl]methyl}-2-(1H-pyrazol-1-yl)-2-{3,3′,4′-trifluoro-[1,1′-biphenyl]-4-yl}acetamide] | < 0.5
CN(C)C(=O)C(C(=O)N(Cc1ccnc(C(C)(C)O)c1)C1C=CS(=O)(=O)C1)c1ccc(-c2ccc(F)cc2)cc1 (single isomer, unassigned) [I-309, (2R**)-N-[(3R*)-1,1-dioxo-2,3-dihydro-1lambda6-thiophen-3-yl]-2-{4′-fluoro-[1,1′-biphenyl]-4-yl}-N-{[2-(2-hydroxypropan-2-yl)pyridin-4-yl]methyl}-N′,N′-dimethylpropanediamide] | 10 to 50
COc1cc(CN(C(=O)Cc2ccc(C(F)(F)F)cc2)C2C=CS(=O)(=O)C2)ccn1 (single isomer, unassigned) [I-382] | > 50
CC(C)(O)c1cc(CN(C(=O)C(OCCC(F)(F)F)c2ccc(-c3ccc(F)c(F)c3)cc2F)[C@@H]2C=CS(=O)(=O)C2)ccn1 (single isomer, unassigned) [I-790] | 0.5 to 5
O=C(Cc1csc(-c2ccccc2)n1)N(Cc1ccncc1)C1C=CS(=O)(=O)C1 (centres unmarked) [I-547, N-(1,1-dioxo-2,3-dihydro-1lambda6-thiophen-3-yl)-2-(2-phenyl-1,3-thiazol-4-yl)-N-[(pyridin-4-yl)methyl]acetamide] | > 50
O=C(Cc1ccc(-c2ccc(F)cc2)cc1)N(Cc1ccncc1)C1C=CS(=O)(=O)C1 (centres unmarked) [I-200, N-(1,1-dioxo-2,3-dihydro-1lambda6-thiophen-3-yl)-2-{4′-fluoro-[1,1′-biphenyl]-4-yl}-N-[(pyridin-4-yl)methyl]acetamide] | 0.5 to 5
O=C(Cc1ccc(-n2cccc2)cc1)N(CCc1ccncc1)C1C=CS(=O)(=O)C1 (centres unmarked) [I-462, N-(1,1-dioxo-2,3-dihydro-1lambda6-thiophen-3-yl)-N-[2-(pyridin-4-yl)ethyl]-2-[4-(1H-pyrrol-1-yl)phenyl]acetamide] | > 50
COc1cc(CN(C(=O)C(OC)c2ccc(-c3ccc(F)cc3)cc2F)C2C=CS(=O)(=O)C2)ccn1 (single isomer, unassigned) [I-366, (2R*)-2-{3,4′-difluoro-[1,1′-biphenyl]-4-yl}-N-[(3R**)-1,1-dioxo-2,3-dihydro-1lambda6-thiophen-3-yl]-2-methoxy-N-[(2-methoxypyridin-4-yl)methyl]acetamide] | > 50
COc1cc(CN(C(=O)Cc2ccc(-n3cccc3C)cc2F)C2C=CS(=O)(=O)C2)ccn1 (single isomer, unassigned) [I-31] | < 0.5
CNC(=O)C(C(=O)N(Cc1ccnc(OC)c1)[C@@H]1C=CS(=O)(=O)C1)c1ccc(-c2ccc(F)c(F)c2)cc1F (stereo partly drawn) [I-688, N′-[(3R)-1,1-dioxo-2,3-dihydro-1lambda6-thiophen-3-yl]-N′-[(2-methoxypyridin-4-yl)methyl]-N-methyl-2-{3,3′,4′-trifluoro-[1,1′-biphenyl]-4-yl}propanediamide] | < 0.5
COc1cc(CN(C(=O)C(OC)c2ccc(S(F)(F)(F)(F)F)cc2)C2C=CS(=O)(=O)C2)ccn1 (centres unmarked) [I-92, N-(1,1-dioxo-2,3-dihydro-1lambda6-thiophen-3-yl)-2-methoxy-N-[(2-methoxypyridin-4-yl)methyl]-2-[4-(pentafluoro-lambda6-sulfanyl)phenyl]acetamide] | 0.5 to 5
COc1cc(CN(C(=O)Cc2ccc(-n3cccc3)cc2)C2C=CS(=O)(=O)C2)ccn1 (centres unmarked) [I-156, N-(1,1-dioxo-2,3-dihydro-1lambda6-thiophen-3-yl)-N-[(2-methoxypyridin-4-yl)methyl]-2-[4-(1H-pyrrol-1-yl)phenyl]acetamide] | 0.5 to 5
O=C(Cc1ccc(S(F)(F)(F)(F)F)cc1)N(Cc1ccc(=O)[nH]n1)C1C=CS(=O)(=O)C1 (centres unmarked) [I-817, N-(1,1-dioxo-2,3-dihydro-1lambda6-thiophen-3-yl)-N-[(6-oxo-1,6-dihydropyridazin-3-yl)methyl]-2-[4-(pentafluoro-lambda6-sulfanyl)phenyl]acetamide] | 0.5 to 5

Reference: US20260297070A1, “CYCLIC [COMPOUND LEFT OUT] WRN INHIBITORS” (Nimbus Wadjet, Inc., priority 2023, published 2026)
